Assay results reported in ChEMBL document CHEMBL4725450 (ACS Med Chem Lett, 2020).
Values belong to the compound of their own block, whether it stands above or below them.

Experiments:
[1] = target: T1, Solute carrier family 22 member 12 (Homo sapiens, UniProt Q96S37); experiment: Inhibition of URAT1 in human RPTEC assessed as inhibition of [14C]uric acid uptake at 10 uM preincubated for 15 mins followed by [14C]uric acid addition and incubated under shaking condition for 2 hrs by scintillation counter method; type: tissue-based
T1 sequence (Q96S37 whole entry): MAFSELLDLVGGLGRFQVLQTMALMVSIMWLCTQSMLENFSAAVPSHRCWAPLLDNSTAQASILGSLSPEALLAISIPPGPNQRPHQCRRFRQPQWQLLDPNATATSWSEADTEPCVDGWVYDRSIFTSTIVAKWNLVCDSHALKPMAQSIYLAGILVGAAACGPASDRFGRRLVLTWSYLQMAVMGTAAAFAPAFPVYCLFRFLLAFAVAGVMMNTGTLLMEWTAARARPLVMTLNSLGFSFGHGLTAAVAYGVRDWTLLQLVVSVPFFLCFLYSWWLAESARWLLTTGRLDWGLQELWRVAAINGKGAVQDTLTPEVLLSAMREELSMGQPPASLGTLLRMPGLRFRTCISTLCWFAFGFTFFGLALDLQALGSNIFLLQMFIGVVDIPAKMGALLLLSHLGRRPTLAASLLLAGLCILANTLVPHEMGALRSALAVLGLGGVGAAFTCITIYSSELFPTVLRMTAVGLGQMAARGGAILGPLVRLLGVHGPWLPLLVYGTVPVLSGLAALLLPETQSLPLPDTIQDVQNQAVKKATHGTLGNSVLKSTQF

[2] = AUC (0 to infinity) in rat at 0.3 mg/kg, po; type: ADME, organism-based; set-up: time infinity, route oral, dose 0.3 mg/kg; details: in vivo
[3] = Drug excretion rate in rat urine at 3 mg/kg, po measured up to 4 hrs by HPLC analysis; type: ADME, organism-based; details: read-out: Drug excretion
[4] = Uricosuric effect in Cebus monkey assessed as fractional plasma urate excretion at 5 mg/kg, po measured up to 4 hrs; type: functional; details: time hrs <=4
[5] = Drug excretion in human urine assessed as excretion rate of glucuronide metabolite of phenols measured for 72 hrs by mass balance test; type: ADME, tissue-based
[6] = Cmax in rat at 0.3 mg/kg, po; type: ADME, organism-based; set-up: route oral, dose 0.3 mg/kg; details: in vivo
[7] = AUC (0 to 24 hrs) in Cebus monkey at 5 mg/kg, po; type: ADME, organism-based; set-up: route oral, dose 5 mg/kg, time <=24; details: in vivo
[8] = Drug excretion in human urine assessed as excretion rate of sulfate metabolite of phenols measured for 72 hrs by mass balance test; type: ADME
[9] = target: T1, Solute carrier family 22 member 12; experiment: Inhibition of URAT1 in human RPTEC assessed as inhibition of [14C]uric acid uptake preincubated for 15 mins followed by [14C]uric acid addition and incubated under shaking condition for 2 hrs by scintillation counter method; type: tissue-based
[10] = Cmax in rat at 0.3 mg/kg, iv; type: ADME, organism-based; set-up: route intravenous, dose 0.3 mg/kg; details: in vivo
[11] = target: T1, Solute carrier family 22 member 12; experiment: Inhibition of human URAT1 expressed in Xenopus laevis oocytes mediated [14C]uric acid uptake at 0.1 uM measured after 60 mins by liquid scintillation counter method relative to control; type: cell-based; details: 1 h
[12] = target: T1, Solute carrier family 22 member 12; experiment: Inhibition of human URAT1 expressed in Xenopus laevis oocytes assessed as inhibition of [14C]uric acid uptake measured after 60 mins by liquid scintillation counter method
[13] = Cmax in rat at 3 mg/kg, po by HPLC analysis; type: ADME, organism-based; set-up: route oral, dose 3 mg/kg; details: in vivo
[14] = system: mitochondrial respiration; experiment: Hepatotoxicity in rat liver mitochondria assessed as inhibition of mitochondrial respiration by measuring mitochondrial respiratory control ratio of oxygen consumption in presence of substrate and ADP to rate after complete conversion of ADP to ATP by Clark-type oxygen electrode method; type: toxicity
[15] = Oral bioavailability in rat at 0.3 mg/kg; type: ADME, organism-based; details: in vivo
[16] = AUC (0 to infinity) in rat at 0.3 mg/kg, iv; type: ADME, organism-based; set-up: time infinity, route intravenous, dose 0.3 mg/kg; details: in vivo
[17] = system: mitochondrial respiration; experiment: Hepatotoxicity in rat liver mitochondria assessed as inhibition of mitochondrial respiration by measuring mitochondrial respiratory control ratio of oxygen consumption in presence of substrate and ADP to rate after complete conversion of ADP to ATP at 100 uM by Clark-type oxygen electrode method; type: toxicity
[18] = AUC (0 to 24 hrs) in Cebus monkey at 30 mg/kg, po; type: ADME, organism-based; set-up: route oral, dose 30 mg/kg, time <=24; details: in vivo
[19] = Uricosuric effect in Cebus monkey assessed as fractional plasma urate excretion at 30 mg/kg, po measured up to 4 hrs; type: functional; details: time hrs <=4
[20] = Acid dissociation constant, pKa of the compound; type: physicochemical
Cytochrome P450 2C9 = Cytochrome P450 2C9 (Homo sapiens, UniProt P11712); experiment: Inhibition of CYP2C9 (unknown origin); type: ADME
Sequence of Cytochrome P450 2C9 (P11712 whole entry): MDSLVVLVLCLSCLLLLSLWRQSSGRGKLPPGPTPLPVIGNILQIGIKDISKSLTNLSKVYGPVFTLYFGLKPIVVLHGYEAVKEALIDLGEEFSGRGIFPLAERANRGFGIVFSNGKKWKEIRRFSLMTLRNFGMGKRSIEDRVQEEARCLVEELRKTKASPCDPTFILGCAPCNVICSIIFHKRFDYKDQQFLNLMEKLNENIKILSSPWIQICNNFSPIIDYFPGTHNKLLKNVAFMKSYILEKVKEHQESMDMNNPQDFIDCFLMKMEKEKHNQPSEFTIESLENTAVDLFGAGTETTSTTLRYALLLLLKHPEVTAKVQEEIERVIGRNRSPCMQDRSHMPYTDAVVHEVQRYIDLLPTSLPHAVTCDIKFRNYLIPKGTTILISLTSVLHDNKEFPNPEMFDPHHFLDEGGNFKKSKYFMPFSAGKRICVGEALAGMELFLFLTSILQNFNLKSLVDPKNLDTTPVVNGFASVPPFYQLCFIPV

Structure (SMILES): O=C(c1cc(Cl)c(O)c(Cl)c1)N1CS(=O)(=O)c2ccccc21 [DOTINURAD]
- inhibition at 10 µM [1]: 81%
- AUC(0-inf) [2]: 5740 ng·h/mL
- dose excreted at 4 h [3]: 1.1%
- Activity [4]: 16.5%
- Drug excretion [5]: 44.3%
- Cmax [6]: 1090 ng/mL
- AUC(0-t) [7]: 109000 ng·h/mL
- Drug excretion [8]: 20%
- IC50 [9]: 6.8 µM
- Cmax [10]: 2400 ng/mL
- inhibition at 0.1 µM [11]: 78%
- IC50 [12]: 0.0372 µM
- Cmax [13]: 9140 ng/mL
- IC50 [14]: 27 µM
- bioavailability [15]: 86.8%
- AUC(0-inf) [16]: 6620 ng·h/mL

Structure (SMILES): CSc1cc(C(=O)N2CCc3ccccc32)cc(C#N)c1O
- inhibition at 10 µM [1]: 24.2%
- IC50 [9]: > 100 µM
- IC50 [14]: 40 µM

Structure (SMILES): O=C(c1cc(Cl)c(O)c(C(F)(F)F)c1)N1CS(=O)(=O)c2ccccc21
- dose excreted at 4 h [3]: 0.1%
- IC50 [9]: 2.6 µM
- Cmax [13]: 6410 ng/mL
- IC50 [14]: 18 µM

Structure (SMILES): N#Cc1cc(C(=O)N2CS(=O)(=O)c3ccccc32)cc(C(F)(F)F)c1O
- inhibition at 100 µM [17]: 12%
- IC50 [9]: > 100 µM

Structure (SMILES): N#Cc1cc(C(=O)N2CCc3ccccc32)ccc1O
- inhibition at 10 µM [1]: 67.5%
- inhibition at 100 µM [17]: 43%
- dose excreted at 4 h [3]: 5.9%
- IC50 [9]: 2.5 µM
- Cmax [13]: 890 ng/mL

Structure (SMILES): O=C(c1cc(F)c(O)c(Cl)c1)N1CS(=O)(=O)c2ccccc21
- dose excreted at 4 h [3]: 4.3%
- IC50 [9]: 33.9 µM
- Cmax [13]: 7700 ng/mL
- IC50 [14]: 63 µM

Structure (SMILES): CCc1oc2ccccc2c1C(=O)c1cc(Br)c(O)c(Br)c1 [BENZBROMARONE]
- AUC(0-t) [18]: 95200 ng·h/mL
- inhibition at 10 µM [1]: 51%
- dose excreted at 4 h [3]: 0%
- Activity [19]: 11.5%
- inhibition at 0.1 µM [11]: 37%
- Cmax [13]: 4420 ng/mL
- IC50 [14]: 3.1 µM
- pKa [20]: 5.17

Structure (SMILES): Cc1c(C)n(C(=O)c2ccc(O)c(C#N)c2)c2ccccc12
- inhibition at 10 µM [1]: 52.1%
- IC50 [9]: 10.8 µM
- IC50 [14]: 3.6 µM

Structure (SMILES): N#Cc1cc(C(=O)N2CCc3ccccc32)cc(C#N)c1O
- inhibition at 10 µM [1]: 26.3%
- inhibition at 100 µM [17]: 47%
- IC50 [9]: 83.9 µM

Structure (SMILES): COc1cc(C(=O)N2CS(=O)(=O)c3ccccc32)cc(Cl)c1O
- inhibition at 100 µM [17]: 49%
- dose excreted at 4 h [3]: 0.1%
- IC50 [9]: 4.3 µM
- Cmax [13]: 1060 ng/mL

Structure (SMILES): N#Cc1cc(C(=O)N2CCc3ccccc32)cc(Cl)c1O
- inhibition at 10 µM [1]: 38.2%
- IC50 [9]: 14.7 µM
- IC50 [14]: 31 µM

Structure (SMILES): N#Cc1cc(C(=O)N2CS(=O)(=O)c3ccccc32)cc(Cl)c1O
- inhibition at 10 µM [1]: 25%
- inhibition at 100 µM [17]: 20%
- dose excreted at 4 h [3]: 23%
- IC50 [9]: > 100 µM
- inhibition at 0.1 µM [11]: 29%
- Cmax [13]: 1350 ng/mL

Further lines, with some results ahead:

- dose excreted at 4 h [3]: 0.1%
- IC50 [9]: 83.3 µM
- Cmax [13]: 4460 ng/mL
Structure (SMILES): CC(C)c1cc(C(=O)N2CS(=O)(=O)c3ccccc32)cc(C#N)c1O
- IC50 [14]: 12 µM

- inhibition at 10 µM [1]: 32%
- dose excreted at 4 h [3]: 1.7%
- IC50 [9]: > 100 µM
- inhibition at 0.1 µM [11]: 36%
- Cmax [13]: 4240 ng/mL
Structure (SMILES): CCc1cc(C(=O)N2CS(=O)(=O)c3ccccc32)cc(C#N)c1O
- IC50 [14]: 37 µM

- inhibition at 10 µM [1]: 67.8%
- dose excreted at 4 h [3]: 0.35%
- IC50 [9]: 8.8 µM
- Cmax [13]: 1360 ng/mL
Structure (SMILES): N#Cc1cc(C(=O)N2CCc3ccccc32)cc(C2CC2)c1O
- IC50 [14]: 24 µM

- inhibition at 10 µM [1]: 21.7%
- IC50 [9]: > 100 µM
Structure (SMILES): COc1cc(C(=O)N2CCc3ccccc32)cc(C#N)c1O
- inhibition at 100 µM [17]: -10%

- inhibition at 10 µM [1]: 32.4%
- IC50 [9]: 31.6 µM
Structure (SMILES): CC(C)(C)c1cc(C(=O)N2CCc3ccccc32)cc(C#N)c1O
- IC50 [14]: 6.6 µM

- dose excreted at 4 h [3]: 0%
- IC50 [9]: 17.8 µM
- Cmax [13]: 3990 ng/mL
Structure (SMILES): COc1cc(C(=O)N2CS(=O)(=O)c3ccccc32)cc(C(F)(F)F)c1O
- inhibition at 100 µM [17]: 47%

- inhibition at 10 µM [1]: 65.1%
- dose excreted at 4 h [3]: 0.02%
- IC50 [9]: 5.3 µM
- Cmax [13]: 5950 ng/mL
Structure (SMILES): N#Cc1cc(C(=O)N2CCc3ccccc32)cc(I)c1O
- IC50 [14]: 53 µM

- dose excreted at 4 h [3]: 0.2%
- IC50 [9]: 5.7 µM
- Cmax [13]: 4640 ng/mL
Structure (SMILES): CSc1cc(C(=O)N2CS(=O)(=O)c3ccccc32)cc(Cl)c1O
- IC50 [14]: 59 µM

- dose excreted at 4 h [3]: 12.4%
- IC50 [9]: 3.2 µM
- Cmax [13]: 1580 ng/mL
Structure (SMILES): C#Cc1cc(C(=O)N2CS(=O)(=O)c3ccccc32)cc(C#N)c1O
- inhibition at 100 µM [17]: 13%

- inhibition at 10 µM [1]: 30%
- IC50 [9]: > 100 µM
Structure (SMILES): N#Cc1cc(C(=O)N2CCc3ccccc32)cc(C(F)(F)F)c1O
- inhibition at 100 µM [17]: 40%

- inhibition at 10 µM [1]: 57%
- dose excreted at 4 h [3]: 9.4%
- IC50 [9]: 7.1 µM
- inhibition at 0.1 µM [11]: 44%
- Cmax [13]: 1080 ng/mL
Structure (SMILES): CSc1cc(C(=O)N2CS(=O)(=O)c3ccccc32)cc(C#N)c1O
- inhibition at 100 µM [17]: 21%

- inhibition at 10 µM [1]: 42%
- dose excreted at 4 h [3]: 0.6%
- IC50 (Cytochrome P450 2C9): 57 µM
- IC50 [9]: 19.2 µM
- inhibition at 0.1 µM [11]: 30%
- Cmax [13]: 3810 ng/mL
Structure (SMILES): N#Cc1cc(C(=O)N2CS(=O)(=O)c3ccccc32)cc(C2CC2)c1O
- IC50 [14]: 59 µM

- pKa [20]: 5.75
Structure (SMILES): O=c1[nH]c(=O)c2[nH]c(=O)[nH]c2[nH]1 [URIC ACID]

- inhibition at 10 µM [1]: 49%
- dose excreted at 4 h [3]: 0.1%
- IC50 [9]: 13.1 µM
- inhibition at 0.1 µM [11]: 71%
- Cmax [13]: 3150 ng/mL
Structure (SMILES): N#Cc1cc(C(=O)N2CSc3ccccc32)cc(C(F)(F)F)c1O
- IC50 [14]: 55 µM
